In brackets after ≈: the same amount, converted by molar mass. Like-named read-outs stand apart in the source and are kept apart here.
Key:
Assay in all cases: MIC determination by in vitro antifungal assay
Assay type in all cases: cell-based
[1] = tested on: Candida glabrata ATCC 2001 (H); conditions: ATCC 2001 in text
Summary of the method: (§1)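 CLSI M27-A3/M38-A2 microdilution, modified. Medium: RPMI 1640 + 0.165 M MOPS, pH 7.0. Compound range 0.06-31.3 μg/mL, double dilution. Incubation 48 h, 35° C. Yeast inoculum: OD600 0.12 (˜1×10^6 CFU/mL), then 1:100.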

[2] = tested on: Candida krusei ATCC 6258 (I)
Summary of the method: as §1

[3] = tested on: Candida parapsilosis ATCC 22019 (J)
Summary of the method: as §1

[4] = tested on: Aspergillus flavus ATCC MYA-3631 (O); conditions: strain O = A. flavus ATCC MYA-3631
Summary of the method: (§2)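 Fungi are exposed to compounds (0.06-31.3 μg/mL, double dilution) in RPMI 1640 adjusted to pH 7.0 with MOPS. Incubation runs 48 h at 35° C, based on CLSI M27-A3/M38-A2. Yeast suspensions start at ˜1×10^6 CFU/mL and are diluted 1:100.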

[5] = tested on: Aspergillus nidulans ATCC 38163 (P)
Summary of the method: as §2

[6] = tested on: Aspergillus terreus ATCC MYA-3633 (N); conditions: strain N = A. terreus ATCC MYA-3633
Summary of the method: as §2

[7] = tested on: Cryptococcus neoformans ATCC MYA-895 (M)
Summary of the method: as §1

[8] = Nakaseomyces glabratus, ATCC 2001 / ATCC 2004, strain H = C. glabrata ATCC 2004 (footnote), read-out: MIC
[9] = Pichia kudriavzevii, ATCC6258, strain I = C. krusei ATCC 6258, read-out: MIC
[10] = Lodderomyces parapsilosis, ATCC22019, strain J = C. parapsilosis ATCC 22019, read-out: MIC
[11] = Aspergillus flavus, read-out: MIC
[12] = Aspergillus nidulans, ATCC38163, strain P = A. nidulans ATCC 38163, read-out: MIC
[13] = Aspergillus terreus, read-out: MIC
[14] = Cryptococcus neoformans, strain M = C. neoformans ATCC MYA-895, read-out: MIC
[15] = strain H = C. glabrata ATCC 2004 (footnote)
[16] = strain J = C. parapsilosis ATCC 22019
[17] = strain P = A. nidulans ATCC 38163
[18] = strain M = C. neoformans ATCC MYA-895

Structure (SMILES) | MIC [1, 8] | MIC [2, 9] | MIC [3, 10] | MIC [4, 11] | MIC [5, 12] | MIC [6, 13] | MIC [7, 14] | MIC [1, 15] | MIC ([2]; strain I = C. krusei ATCC 6258) | MIC [3, 16] | MIC [4] | MIC [5, 17] | MIC [6] | MIC [7, 18] | MIC ([2]; against strain I) | MIC ([7]; against strain M)
O=C(NNc1ccc(F)cc1F)c1nc(F)ccc1F [Compound 8g] | 15.6 µg/mL (≈ 54.7 µM) | 0.49 µg/mL (≈ 1.72 µM) | 15.6 µg/mL (≈ 54.7 µM) | > 31.3 µg/mL | 0.49 µg/mL (≈ 1.72 µM) | 31.3 µg/mL (≈ 110 µM) | 0.49 µg/mL (≈ 1.72 µM) |  |  |  |  |  |  |  |  | 
O=C(NNc1cccc(F)c1)c1nc(F)ccc1F [Compound 8a] |  |  |  |  |  |  |  | 15.6 μg/mL^−1 | 0.49 μg/mL^−1 | 7.8 μg/mL^−1 | >31.3 μg/mL^−1 | 1.95 μg/mL^−1 | 3.9 μg/mL^−1 | ≤0.06 μg/mL^−1 |  | 
COc1cccc(NNC(=O)c2ccccn2)c1 [Compound 2c] |  |  |  |  |  |  |  | 13.6 μg/mL^−1 | 0.49 μg/mL^−1 | 3.9 μg/mL^−1 | >31.3 μg/mL^−1 | 1.95 μg/mL^−1 | 3.9 μg/mL^−1 | 0.24 μg/mL^−1 |  | 
O=C(NNc1cccc(F)c1)c1ccc(F)cc1F [Compound 1a] |  |  |  |  |  |  |  | 7.8 μg/mL^−1 | 1.95 μg/mL^−1 | 3.9 μg/mL^−1 | >31.3 μg/mL^−1 | 3.9 μg/mL^−1 | 3.9 μg/mL^−1 | 1.95 μg/mL^−1 |  | 
COc1cccc(NNC(=O)c2ccc(F)cc2F)c1 [Compound 1c] | 31.3 µg/mL (≈ 112 µM) | 0.98 µg/mL (≈ 3.52 µM) | 7.8 µg/mL (≈ 28 µM) | > 31.3 µg/mL | 3.9 µg/mL (≈ 14 µM) | 3.9 µg/mL (≈ 14 µM) | 0.49 µg/mL (≈ 1.76 µM) |  |  |  |  |  |  |  |  | 
O=C(NNc1ccc(F)cc1)c1ccc(Br)cn1 [Compound 4d] | > 31.3 µg/mL | 0.98 µg/mL (≈ 3.16 µM) | 7.8 µg/mL (≈ 25.2 µM) | 15.6 µg/mL (≈ 50.3 µM) | 1.95 µg/mL (≈ 6.29 µM) | 7.8 µg/mL (≈ 25.2 µM) | 0.98 µg/mL (≈ 3.16 µM) |  |  |  |  |  |  |  |  | 
O=C(NNc1cc(F)cc(F)c1)c1ccccn1 [Compound 2i] | 7.8 µg/mL (≈ 31.3 µM) | 0.24 µg/mL (≈ 0.963 µM) | 1.95 µg/mL (≈ 7.82 µM) | 1.95 µg/mL (≈ 7.82 µM) | 0.49 µg/mL (≈ 1.97 µM) | 0.98 µg/mL (≈ 3.93 µM) | 0.24 µg/mL (≈ 0.963 µM) |  |  |  |  |  |  |  |  | 
C[C@@H]1[C@H](O)[C@@H](C)/C=C/C=C/C=C/C=C/C=C/C=C/C=C/[C@H](O[C@@H]2O[C@H](C)[C@@H](O)[C@H](N)[C@@H]2O)C[C@@H]2O[C@](O)(C[C@@H](O)C[C@@H](O)[C@H](O)CC[C@@H](O)C[C@@H](O)CC(=O)O[C@H]1C)C[C@H](O)[C@H]2C(=O)O [AmB, amphotericin B, reference compound] |  |  |  |  |  |  |  | 0.98 μg/mL^−1 | 0.98 μg/mL^−1 | 0.98 μg/mL^−1 | 31.3 μg/mL^−1 | 15.6 μg/mL^−1 | 3.9 μg/mL^−1 | 7.8 μg/mL^−1 |  | 
O=C(NNc1cccc(F)c1)c1cccc(F)n1 [Compound 5a] |  |  |  |  |  |  |  | 31.3 μg/mL^−1 | 0.24 μg/mL^−1 | 7.8 μg/mL^−1 | >31.3 μg/mL^−1 | 0.98 μg/mL^−1 | 1.95 μg/mL^−1 | ≤0.06 μg/mL^−1 |  | 
COc1ccc(NNC(=O)c2nc(F)ccc2F)cc1 [Compound 8f] | 7.8 µg/mL (≈ 27.9 µM) | 0.98 µg/mL (≈ 3.51 µM) | 7.8 µg/mL (≈ 27.9 µM) | > 31.3 µg/mL | 1.95 µg/mL (≈ 6.98 µM) | 31.3 µg/mL (≈ 112 µM) | 0.98 µg/mL (≈ 3.51 µM) |  |  |  |  |  |  |  |  | 
O=C(NNc1ccc(F)cc1)c1ncc(F)cc1F [Compound 7d] | 15.6 µg/mL (≈ 58.4 µM) | 0.49 µg/mL (≈ 1.83 µM) | 3.9 µg/mL (≈ 14.6 µM) | 7.8 µg/mL (≈ 29.2 µM) | 0.49 µg/mL (≈ 1.83 µM) | 3.9 µg/mL (≈ 14.6 µM) | 0.49 µg/mL (≈ 1.83 µM) |  |  |  |  |  |  |  |  | 
COc1ccc(NNC(=O)c2ncc(F)cc2F)cc1 [Compound 7f] | 7.8 µg/mL (≈ 27.9 µM) | 0.98 µg/mL (≈ 3.51 µM) | 7.8 µg/mL (≈ 27.9 µM) | > 31.3 µg/mL | 1.95 µg/mL (≈ 6.98 µM) | 31.3 µg/mL (≈ 112 µM) | 1.95 µg/mL (≈ 6.98 µM) |  |  |  |  |  |  |  |  | 
O=C(NNc1ccc(F)cc1F)c1ccc(F)cn1 [Compound 3g] | 31.3 µg/mL (≈ 117 µM) | 0.98 µg/mL (≈ 3.67 µM) | 31.3 µg/mL (≈ 117 µM) | 15.6 µg/mL (≈ 58.4 µM) | 0.98 µg/mL (≈ 3.67 µM) | 3.9 µg/mL (≈ 14.6 µM) | 0.98 µg/mL (≈ 3.67 µM) |  |  |  |  |  |  |  |  | 
COc1cccc(NNC(=O)c2cnccn2)c1 [Compound 9c] | 7.8 µg/mL (≈ 31.9 µM) | 0.49 µg/mL (≈ 2.01 µM) | 1.95 µg/mL (≈ 7.98 µM) | > 31.3 µg/mL | 1.95 µg/mL (≈ 7.98 µM) | 1.95 µg/mL (≈ 7.98 µM) | 0.49 µg/mL (≈ 2.01 µM) |  |  |  |  |  |  |  |  | 
O=C(NNc1ccc(F)cc1)c1ccc(F)cc1F [Compound 1d] | 7.8 µg/mL (≈ 29.3 µM) | 1.95 µg/mL (≈ 7.32 µM) | 15.6 µg/mL (≈ 58.6 µM) | > 31.3 µg/mL | 3.9 µg/mL (≈ 14.6 µM) | 3.9 µg/mL (≈ 14.6 µM) | 0.49 µg/mL (≈ 1.84 µM) |  |  |  |  |  |  |  |  | 
O=C(NNc1cccc(F)c1)c1ncc(F)cc1F [Compound 7a] |  |  |  |  |  |  |  | 31.3 μg/mL^−1 | 0.24 μg/mL^−1 | 1.95 μg/mL^−1 | >31.3 μg/mL^−1 | 0.98 μg/mL^−1 | 3.9 μg/mL^−1 | ≤0.06 μg/mL^−1 |  | 
O=C(NNc1cc(F)ccc1F)c1cnccn1 [Compound 9h] | 15.6 µg/mL (≈ 62.3 µM) | 0.49 µg/mL (≈ 1.96 µM) | 7.8 µg/mL (≈ 31.2 µM) | > 31.3 µg/mL | 1.95 µg/mL (≈ 7.79 µM) | 1.95 µg/mL (≈ 7.79 µM) | 0.49 µg/mL (≈ 1.96 µM) |  |  |  |  |  |  |  |  | 
O=C(NNc1cc(F)cc(F)c1)c1ccc(F)cc1F [Compound 1i] | > 31.3 µg/mL | 1.95 µg/mL (≈ 6.86 µM) | 15.6 µg/mL (≈ 54.9 µM) | > 31.3 µg/mL | 7.8 µg/mL (≈ 27.4 µM) | > 31.3 µg/mL | 0.49 µg/mL (≈ 1.72 µM) |  |  |  |  |  |  |  | 1.95 j·tg mL^−1 | 0.49 j·tg mL^−1
O=C(NNc1cccc(F)c1)c1ccc(Br)cn1 [Compound 4a] |  |  |  |  |  |  |  | >31.3 μg/mL^−1 | 0.24 μg/mL^−1 | 7.8 μg/mL^−1 | 15.6 μg/mL^−1 | 1.95 μg/mL^−1 | 0.98 μg/mL^−1 | 0.06 μg/mL^−1 |  | 
COc1cccc(NNC(=O)c2ncc(F)cc2F)c1 [Compound 7c] | 15.6 µg/mL (≈ 55.9 µM) | 15.6 µg/mL (≈ 55.9 µM) | 15.6 µg/mL (≈ 55.9 µM) | > 31.3 µg/mL | 15.6 µg/mL (≈ 55.9 µM) | 31.3 µg/mL (≈ 112 µM) | 15.6 µg/mL (≈ 55.9 µM) |  |  |  |  |  |  |  |  | 
COc1ccc(NNC(=O)c2ccccn2)cc1 [Compound 2f] | 0.98 µg/mL (≈ 4.03 µM) | 0.49 µg/mL (≈ 2.01 µM) | 3.9 µg/mL (≈ 16 µM) | > 31.3 µg/mL | 0.49 µg/mL (≈ 2.01 µM) | 31.3 µg/mL (≈ 129 µM) | 0.49 µg/mL (≈ 2.01 µM) |  |  |  |  |  |  |  |  | 
O=C(NNc1ccc(F)cc1)c1cnccn1 [Compound 9d] | 3.9 µg/mL (≈ 16.8 µM) | 0.49 µg/mL (≈ 2.11 µM) | 3.9 µg/mL (≈ 16.8 µM) | 15.6 µg/mL (≈ 67.2 µM) | 0.49 µg/mL (≈ 2.11 µM) | 1.95 µg/mL (≈ 8.4 µM) | 0.24 µg/mL (≈ 1.03 µM) |  |  |  |  |  |  |  |  | 

Reference: US20240425464A1, “Substituted Monohydrazides as Potent Antifungal Agents” (University of Kentucky Research Foundation, priority 2023, published 2024)
